Measurements published in US6878253B2, “Chiral separation of benzoporphyrin derivative mono-and di-acids by laser-induced fluorescence capillary electrophoresis” (The University of British Columbia, priority 1998, dated 2005).

Tests used:
[1] = Extinction coefficient determination in borate/cholate buffer; format: physicochemical; details: 430 nm; 300 mM borate, 10% acetonitrile, 25 mM sodium cholate, pH 9.2
Text: The compounds have the same chromophore and identical absorption spectra (FIG. 3a) with a characteristic major broad peak in the Soret region (420 nm) and several other peaks at longer wavelengths. The most interesting long wavelength peak, in terms of applications in PDT, is the peak at 688 nm (in organic solvents). […] An emission spectrum is also shown in FIG. 3b with a characteristic emission at about 692 nm, near red (Q-band), with a Stokes shift of ˜4 nm for fluorescence. […] As such, there is no gain in photo absorption by use of any particular BPD enantiomer.

[2] = Decomposition (hydrolysis) in electrophoresis buffers; format: physicochemical; details: in one hour at pH 9.2
Protocol: Separation by CE is also affected by the buffering system used. Buffer type, concentration, ionic strength, and pH are all parameters to consider, and a variety of buffers may be used. Buffer solutions of pH 11.04, 100 mM 3-(cyclohexylamino)-1-propanesulfonic acid (CAPS); pH 6.76, 30 mM ammonium acetate; pH 2.76, 50 mM citric acid; and pH 9.2, 100 mM borate were tested as electrolytes. […] This was followed by either separation shut down or excess spiking and signal noise. In citric acid buffer the BPD enantiomers were protonated at the propionic side chain, defeating separation based on the deprotonated state. Since the effective charge(s) are the same for BPD-DA and BPD-MA, the electrophoretic mobility difference is normally very small. Also, at […], the EOF was very small and this caused the migration time to become overly long. The result was very poor signal separation due to extensive diffusion.
With borate buffer at about pH 9.2, however, the BPD-DA and BPD-MA enantiomers were completely separated. This, in combination with the ability of borate to form a very stable buffer solution with high buffering capacity and its ability to be used in very high concentrations, made it a preferred choice for use in the instant separation methods. Borate has also been used in other separation systems (Consden et al. (1952); Boeseken (1949); and Landers et al. (1992)). […]

skin = details: versus Photofrin (Richter et al. (1987)); cited from earlier work

Row | Compound | Extinction coefficient [1] | decomposition [2] | skin phototoxicity (skin)
1 | C=Cc1c(C)c2cc3nc(cc4[nH]c(cc5nc(cc1[nH]2)C(C)=C5CCC(=O)O)c(CCC(=O)O)c4C)[C@@]1(C)C3=CC=C(C(=O)OC)[C@H]1C(=O)OC [BPD-DA, benzoporphyrin derivative diacid] | 75,200 M^−1 cm^−1 | – | –
2 | benzoporphyrin derivative monoacid ring A [BPD-MA] | 61,000 M^−1 cm^−1 | less than 1% | lower skin phototoxicity than Photofrin
